{"source": "patent US20180093308A1", "about": "“METHANOGENESIS CONTROL DURING ENVIRONMENTAL APPLICATIONS USING ANTIMETHANOGENIC REAGENTS” (Innovative Environmental Technologies, Inc, priority 2016, published 2018)", "test_system": "Archaea", "assay": "Laboratory Study 4: methane concentration in control and test samples with AMRs", "assay_type": "cell-based", "description": "Use of diallyl sulfide, which may be considered a synthetic garlic oil (GOS), was evaluated for its ability to control Archaea compared to the effects of other potential AMRs such as natural/pressed Garlic Oil (GO) and dehydrated Garlic Powder (GP). Control samples with and without contaminants were captured along with test samples that included contaminants and different concentrations (250 ppm and 500 ppm) of different AMRs (GO, GOS and GP). The concentration of methane in each of the samples was measured at 0, 9, 16 and 23 days.", "data": [{"smiles": "C=CCSCC=C", "note": "[GOS, diallyl sulfide]", "values": [{"measurement": "control response in terms of methane production", "setting": "250 ppm and 500 ppm, 23 days incubation", "result": "best control response"}, {"measurement": "length and magnitude of antimethanogenic responses", "setting": "500 ppm lasting longer than 250 ppm", "result": "concentration dependent"}]}]}
